In ChEMBL document CHEMBL4808229, “Privileged scaffolds in medicinal chemistry: Studies on pyrazolo[1,5-a]pyrimidines on sulfonamide containing Carbonic Anhydrase inhibitors” (Bioorg Med Chem Lett, 2021):

target: Carbonic anhydrase 9 (Homo sapiens, UniProt Q16790); assay: Inhibition of recombinant human carbonic anhydrase 9 by stopped-flow CO2 hydration assay

| SMILES | Ki |
| --- | --- |
| CCOC(=O)c1cnc2c(NC(=S)NCc3ccc(S(N)(=O)=O)cc3)cnn2c1C | 23 nM |
| CCOC(=O)c1cnc2c(NC(=O)c3ccc(Cl)c(S(N)(=O)=O)c3)cnn2c1C | 6.5 nM |
| CCOC(=O)c1cnc2c(NC(=S)Nc3cccc(S(N)(=O)=O)c3)cnn2c1C | 312 nM |
| Cc1c(C(=O)O)cnc2c(NC(=O)Nc3ccc(S(N)(=O)=O)cc3)cnn12 | 851 nM |
| Cc1c(C(=O)O)cnc2c(NC(=O)NCc3ccc(S(N)(=O)=O)cc3)cnn12 | 703 nM |
| CCOC(=O)c1cnc2c(NC(=O)NCc3ccc(S(N)(=O)=O)cc3)cnn2c1C | 9.7 nM |
| CCOC(=O)c1cnc2c(NC(=S)NCCc3ccc(S(N)(=O)=O)cc3)cnn2c1C | 919 nM |
| CCOC(=O)c1cnc2c(NC(=S)Nc3ccc(S(N)(=O)=O)cc3)cnn2c1C | 680 nM |
| Cc1c(C(=O)O)cnc2c(NC(=O)c3ccc(S(N)(=O)=O)cc3)cnn12 | 142 nM |
| CCOC(=O)c1cnc2c(NC(=O)NCCc3ccc(S(N)(=O)=O)cc3)cnn2c1C | 975 nM |
| Cc1c(C(=O)O)cnc2c(NC(=O)Nc3cccc(S(N)(=O)=O)c3)cnn12 | 523 nM |
| Cc1c(C(=O)O)cnc2c(NC(=O)NCCc3ccc(S(N)(=O)=O)cc3)cnn12 | 212 nM |
| CCOC(=O)c1cnc2c(NC(=O)c3ccc(S(N)(=O)=O)cc3)cnn2c1C | 142 nM |
| CCOC(=O)c1cnc2c(NC(=O)N/C=C/c3ccc(S(N)(=O)=O)cc3)cnn2c1C | 843 nM |
